Reference: the kinase profiling compilation of Christmann-Franck et al. (2016)

Columns and labels:
Assay in all cases: radiometric filter-binding kinase assay, Kinase HotSpot
Details in all cases: compound 0.5 µM; ATP 10 µM
TNK2 (human) = TNK2 (human) (UniProt Q07912)
FYN (human) = FYN (human) (UniProt P06241)
EPHB2 (human) = EPHB2 (human) (UniProt P29323)
BRSK1 (human) = BRSK1 (human) (UniProt Q8TDC3)
AURKB (human) = AURKB (human) (UniProt Q96GD4)
PAK1 (human) = PAK1 (human) (UniProt Q13153)
STK39 (human) = STK39 (human) (UniProt Q9UEW8)
EPHA7 (human) = EPHA7 (human) (UniProt Q15375)
CSNK1G1 (human) = CSNK1G1 (human) (UniProt Q9HCP0)
MAP4K5 (human) = MAP4K5 (human) (UniProt Q9Y4K4)
EPHA2 (human) = EPHA2 (human) (UniProt P29317)
NTRK1 (human) = NTRK1 (human) (UniProt P04629)
Sequence of NTRK1 (human) (P04629 whole entry, looked up): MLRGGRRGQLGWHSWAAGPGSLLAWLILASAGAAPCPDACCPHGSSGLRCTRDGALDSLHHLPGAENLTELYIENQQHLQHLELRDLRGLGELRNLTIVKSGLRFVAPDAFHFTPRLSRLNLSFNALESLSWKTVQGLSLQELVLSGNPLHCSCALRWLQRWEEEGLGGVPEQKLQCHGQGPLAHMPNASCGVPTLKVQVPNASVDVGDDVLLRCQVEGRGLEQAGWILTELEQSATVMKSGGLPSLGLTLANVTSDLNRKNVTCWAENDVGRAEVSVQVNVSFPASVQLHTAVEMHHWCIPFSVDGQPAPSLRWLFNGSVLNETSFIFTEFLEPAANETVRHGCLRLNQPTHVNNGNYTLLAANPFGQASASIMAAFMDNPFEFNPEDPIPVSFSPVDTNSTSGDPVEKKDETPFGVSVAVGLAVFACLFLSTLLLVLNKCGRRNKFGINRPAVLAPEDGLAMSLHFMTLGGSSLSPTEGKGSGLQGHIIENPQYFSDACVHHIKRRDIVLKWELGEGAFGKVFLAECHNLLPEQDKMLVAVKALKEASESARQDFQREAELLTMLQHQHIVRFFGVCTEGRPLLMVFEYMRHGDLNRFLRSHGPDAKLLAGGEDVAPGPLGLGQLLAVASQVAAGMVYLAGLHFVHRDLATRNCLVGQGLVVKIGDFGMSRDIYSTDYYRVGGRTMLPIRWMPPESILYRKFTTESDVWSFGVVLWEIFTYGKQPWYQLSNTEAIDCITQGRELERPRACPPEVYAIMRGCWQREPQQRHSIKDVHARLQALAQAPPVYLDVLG

LIMK1 (human) = LIMK1 (human) (UniProt P53667)
Sequence of LIMK1 (human) (P53667 whole entry, looked up): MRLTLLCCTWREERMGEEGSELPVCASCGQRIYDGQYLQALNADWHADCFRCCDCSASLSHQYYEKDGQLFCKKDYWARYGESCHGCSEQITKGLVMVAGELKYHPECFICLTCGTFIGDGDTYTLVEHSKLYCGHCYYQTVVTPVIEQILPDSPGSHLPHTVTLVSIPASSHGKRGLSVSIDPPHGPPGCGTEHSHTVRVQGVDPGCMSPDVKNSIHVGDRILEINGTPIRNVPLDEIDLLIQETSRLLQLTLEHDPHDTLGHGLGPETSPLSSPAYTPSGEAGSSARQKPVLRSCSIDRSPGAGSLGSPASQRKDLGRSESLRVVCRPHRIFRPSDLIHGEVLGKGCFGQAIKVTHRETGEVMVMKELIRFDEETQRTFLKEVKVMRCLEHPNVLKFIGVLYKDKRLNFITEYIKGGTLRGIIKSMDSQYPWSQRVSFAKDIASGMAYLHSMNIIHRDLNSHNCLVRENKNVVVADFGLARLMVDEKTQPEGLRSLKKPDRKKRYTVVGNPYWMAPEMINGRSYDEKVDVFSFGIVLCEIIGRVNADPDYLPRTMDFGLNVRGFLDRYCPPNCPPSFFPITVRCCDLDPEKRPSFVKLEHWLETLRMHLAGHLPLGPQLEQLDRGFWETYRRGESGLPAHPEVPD

PRKX (human) = PRKX (human) (UniProt P51817)
Sequence of PRKX (human) (P51817 whole entry, looked up): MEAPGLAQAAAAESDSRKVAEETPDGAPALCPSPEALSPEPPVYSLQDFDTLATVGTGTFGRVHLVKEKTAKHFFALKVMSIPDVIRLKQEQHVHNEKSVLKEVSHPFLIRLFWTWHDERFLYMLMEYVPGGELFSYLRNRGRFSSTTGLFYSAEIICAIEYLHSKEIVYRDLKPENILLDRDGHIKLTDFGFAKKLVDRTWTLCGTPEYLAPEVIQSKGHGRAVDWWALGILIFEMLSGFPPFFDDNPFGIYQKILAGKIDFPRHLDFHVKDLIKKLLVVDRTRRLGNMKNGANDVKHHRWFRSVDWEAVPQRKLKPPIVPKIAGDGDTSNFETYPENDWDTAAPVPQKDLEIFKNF

NEK4 (human) = NEK4 (human) (UniProt P51957)
PAK4 (human) = PAK4 (human) (UniProt O96013)
CDK2 CCNA2 (human) = CDK2 CCNA2 (human) (UniProt P24941+P20248)
RPS6KB2 (human) = RPS6KB2 (human) (UniProt Q9UBS0)
MARK2 (human) = MARK2 (human) (UniProt Q7KZI7)
LRRK2 (human) = LRRK2 (human) (UniProt Q5S007)
CDC42BPB (human) = CDC42BPB (human) (UniProt Q9Y5S2)
CSNK2A1 (human) = CSNK2A1 (human) (UniProt P68400)
CDK9 CCNT1 (human) = CDK9 CCNT1 (human) (UniProt P50750+O60563)
Sequence of CDK9 CCNT1 (human) (O60563 whole entry, looked up): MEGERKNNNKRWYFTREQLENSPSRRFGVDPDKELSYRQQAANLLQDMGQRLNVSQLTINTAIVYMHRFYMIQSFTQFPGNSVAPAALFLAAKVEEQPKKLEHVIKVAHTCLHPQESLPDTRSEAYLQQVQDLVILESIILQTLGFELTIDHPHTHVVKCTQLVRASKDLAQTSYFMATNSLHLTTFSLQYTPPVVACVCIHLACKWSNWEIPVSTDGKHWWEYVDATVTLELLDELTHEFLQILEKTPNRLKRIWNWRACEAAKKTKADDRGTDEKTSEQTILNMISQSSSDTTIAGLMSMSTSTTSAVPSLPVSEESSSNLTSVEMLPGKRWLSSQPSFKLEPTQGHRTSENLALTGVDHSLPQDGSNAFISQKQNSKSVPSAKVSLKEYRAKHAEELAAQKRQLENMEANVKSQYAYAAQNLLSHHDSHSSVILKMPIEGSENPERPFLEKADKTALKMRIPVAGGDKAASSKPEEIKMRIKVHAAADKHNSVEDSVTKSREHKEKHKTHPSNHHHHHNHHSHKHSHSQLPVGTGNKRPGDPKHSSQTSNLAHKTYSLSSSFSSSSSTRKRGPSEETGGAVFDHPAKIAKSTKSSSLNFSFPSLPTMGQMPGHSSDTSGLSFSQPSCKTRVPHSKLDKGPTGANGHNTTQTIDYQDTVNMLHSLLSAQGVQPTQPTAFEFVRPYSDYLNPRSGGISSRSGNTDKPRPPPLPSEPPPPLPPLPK
Sequence of CDK9 CCNT1 (human) (P50750 whole entry, looked up): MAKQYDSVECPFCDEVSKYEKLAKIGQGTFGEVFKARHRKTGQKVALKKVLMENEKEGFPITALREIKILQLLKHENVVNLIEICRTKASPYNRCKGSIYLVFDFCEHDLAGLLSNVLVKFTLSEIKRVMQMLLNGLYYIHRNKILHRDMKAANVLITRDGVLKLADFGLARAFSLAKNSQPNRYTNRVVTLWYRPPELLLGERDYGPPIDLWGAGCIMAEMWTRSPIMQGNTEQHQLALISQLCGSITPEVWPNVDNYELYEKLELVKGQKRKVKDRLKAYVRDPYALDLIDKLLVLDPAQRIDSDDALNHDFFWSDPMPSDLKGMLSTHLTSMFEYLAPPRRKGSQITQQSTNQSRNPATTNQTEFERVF

IKBKB (human) = IKBKB (human) (UniProt O14920)
TAOK3 (human) = TAOK3 (human) (UniProt Q9H2K8)
PRKCI (human) = PRKCI (human) (UniProt P41743)
Sequence of PRKCI (human) (P41743 whole entry, looked up): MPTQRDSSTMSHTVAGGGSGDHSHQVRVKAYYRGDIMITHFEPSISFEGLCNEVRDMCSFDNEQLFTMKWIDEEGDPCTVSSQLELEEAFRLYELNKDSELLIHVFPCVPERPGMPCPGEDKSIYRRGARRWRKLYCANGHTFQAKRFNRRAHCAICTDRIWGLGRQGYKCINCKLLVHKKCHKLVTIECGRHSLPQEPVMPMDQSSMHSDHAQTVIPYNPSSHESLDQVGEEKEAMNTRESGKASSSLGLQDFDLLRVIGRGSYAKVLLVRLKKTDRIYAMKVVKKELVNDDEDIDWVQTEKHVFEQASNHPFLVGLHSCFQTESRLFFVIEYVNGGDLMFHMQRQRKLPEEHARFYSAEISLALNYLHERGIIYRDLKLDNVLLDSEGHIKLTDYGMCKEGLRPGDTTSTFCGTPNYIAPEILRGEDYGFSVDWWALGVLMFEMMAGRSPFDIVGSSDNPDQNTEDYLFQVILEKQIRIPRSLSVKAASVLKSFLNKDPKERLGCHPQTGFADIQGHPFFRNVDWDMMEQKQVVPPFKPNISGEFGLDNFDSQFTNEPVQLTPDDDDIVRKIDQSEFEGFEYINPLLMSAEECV

GSG2 (human) = GSG2 (human) (UniProt Q8TF76)
ACVRL1 (human) = ACVRL1 (human) (UniProt P37023)
MERTK (human) = MERTK (human) (UniProt Q12866)
Sequence of MERTK (human) (Q12866 whole entry, looked up): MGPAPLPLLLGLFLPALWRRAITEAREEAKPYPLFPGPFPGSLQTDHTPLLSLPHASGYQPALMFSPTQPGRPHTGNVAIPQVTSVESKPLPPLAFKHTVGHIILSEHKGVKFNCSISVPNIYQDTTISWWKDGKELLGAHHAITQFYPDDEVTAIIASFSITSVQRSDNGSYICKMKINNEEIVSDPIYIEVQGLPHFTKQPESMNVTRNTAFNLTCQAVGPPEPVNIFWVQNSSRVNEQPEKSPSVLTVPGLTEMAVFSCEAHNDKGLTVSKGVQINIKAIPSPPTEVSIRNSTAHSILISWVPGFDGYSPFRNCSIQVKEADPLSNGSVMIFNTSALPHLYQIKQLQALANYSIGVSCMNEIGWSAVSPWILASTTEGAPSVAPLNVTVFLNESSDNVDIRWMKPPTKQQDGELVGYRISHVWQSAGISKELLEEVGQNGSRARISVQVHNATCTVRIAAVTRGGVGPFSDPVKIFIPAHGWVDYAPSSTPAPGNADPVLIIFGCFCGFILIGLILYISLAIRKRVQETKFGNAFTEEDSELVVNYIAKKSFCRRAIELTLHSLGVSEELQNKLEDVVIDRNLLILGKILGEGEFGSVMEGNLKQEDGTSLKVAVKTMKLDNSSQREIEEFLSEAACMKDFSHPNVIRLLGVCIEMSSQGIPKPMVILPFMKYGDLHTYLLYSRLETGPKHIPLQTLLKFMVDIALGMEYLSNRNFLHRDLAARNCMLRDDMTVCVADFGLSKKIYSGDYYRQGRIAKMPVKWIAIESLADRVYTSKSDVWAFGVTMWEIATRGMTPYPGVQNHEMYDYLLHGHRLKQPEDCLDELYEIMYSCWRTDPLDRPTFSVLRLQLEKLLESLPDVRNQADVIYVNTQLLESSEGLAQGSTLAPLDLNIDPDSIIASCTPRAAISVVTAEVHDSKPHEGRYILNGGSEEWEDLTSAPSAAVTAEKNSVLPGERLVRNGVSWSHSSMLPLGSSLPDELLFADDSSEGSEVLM

AKT1 (human) = AKT1 (human) (UniProt P31749)
MATK (human) = MATK (human) (UniProt P42679)
GSK3B (human) = GSK3B (human) (UniProt P49841)
PNCK (human) = PNCK (human) (UniProt Q6P2M8)
TBK1 (human) = TBK1 (human) (UniProt Q9UHD2)
MST4 (human) = MST4 (human) (UniProt Q9P289)
CLK4 (human) = CLK4 (human) (UniProt Q9HAZ1)
MUSK (human) = MUSK (human) (UniProt O15146)
WNK2 (human) = WNK2 (human) (UniProt Q9Y3S1)
CSNK1A1 (human) = CSNK1A1 (human) (UniProt P48729)
PAK6 (human) = PAK6 (human) (UniProt Q9NQU5)
PLK1 (human) = PLK1 (human) (UniProt P53350)
MET (human) = MET (human) (UniProt P08581)

Sequence of AURKB (human) (Q96GD4 whole entry, looked up): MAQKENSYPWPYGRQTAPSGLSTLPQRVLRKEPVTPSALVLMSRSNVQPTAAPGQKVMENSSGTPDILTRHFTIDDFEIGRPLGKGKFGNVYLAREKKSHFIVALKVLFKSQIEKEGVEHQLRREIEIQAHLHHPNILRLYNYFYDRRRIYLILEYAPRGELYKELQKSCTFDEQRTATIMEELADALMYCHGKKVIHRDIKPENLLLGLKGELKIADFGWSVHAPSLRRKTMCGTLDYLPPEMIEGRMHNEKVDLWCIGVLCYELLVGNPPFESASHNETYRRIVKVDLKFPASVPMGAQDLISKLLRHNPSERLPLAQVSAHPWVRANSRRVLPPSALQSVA

O=c1c(-c2ccc(F)cc2)c(-c2ccncc2)[nH]n1-c1ccc(Cl)cc1
residual activity (TNK2 (human)): 91.2% | residual activity (FYN (human)): 94.8% | residual activity (EPHB2 (human)): 101% | residual activity (BRSK1 (human)): 88.7% | residual activity (AURKB (human)): 95.1% | residual activity (PAK1 (human)): 92.4% | residual activity (STK39 (human)): 128% | residual activity (EPHA7 (human)): 98.5% | residual activity (CSNK1G1 (human)): 83.4% | residual activity (MAP4K5 (human)): 83.1% | residual activity (EPHA2 (human)): 101% | residual activity (NTRK1 (human)): 95.5% | residual activity (LIMK1 (human)): 91.5% | residual activity (PRKX (human)): 97% | residual activity (NEK4 (human)): 93.9% | residual activity (PAK4 (human)): 82% | residual activity (CDK2 CCNA2 (human)): 89.9% | residual activity (RPS6KB2 (human)): 95.5% | residual activity (MARK2 (human)): 88.8% | residual activity (LRRK2 (human)): 102% | residual activity (CDC42BPB (human)): 103% | residual activity (CSNK2A1 (human)): 95.3% | residual activity (CDK9 CCNT1 (human)): 101% | residual activity (IKBKB (human)): 102% | residual activity (TAOK3 (human)): 89.5% | residual activity (PRKCI (human)): 96.2% | residual activity (GSG2 (human)): 96.5% | residual activity (ACVRL1 (human)): 88.1% | residual activity (MERTK (human)): 82.7% | residual activity (AKT1 (human)): 96.4% | residual activity (MATK (human)): 86% | residual activity (GSK3B (human)): 91.6% | residual activity (PNCK (human)): 92% | residual activity (TBK1 (human)): 112% | residual activity (MST4 (human)): 94.1% | residual activity (CLK4 (human)): 78.9% | residual activity (MUSK (human)): 102% | residual activity (WNK2 (human)): 112% | residual activity (CSNK1A1 (human)): 63.7% | residual activity (PAK6 (human)): 73.5% | residual activity (PLK1 (human)): 98.3% | residual activity (MET (human)): 101%

COc1cc2ncnc(Nc3ccc(O)c(Br)c3)c2cc1OC
residual activity (TNK2 (human)): 10.5% | residual activity (FYN (human)): 80.4% | residual activity (EPHB2 (human)): 66.1% | residual activity (BRSK1 (human)): 81.6% | residual activity (AURKB (human)): 63.5% | residual activity (PAK1 (human)): 94.1% | residual activity (STK39 (human)): 87.4% | residual activity (EPHA7 (human)): 46.1% | residual activity (CSNK1G1 (human)): 92.4% | residual activity (MAP4K5 (human)): 28.9% | residual activity (EPHA2 (human)): 80.6% | residual activity (NTRK1 (human)): 96.4% | residual activity (LIMK1 (human)): 85.1% | residual activity (PRKX (human)): 89.2% | residual activity (NEK4 (human)): 93.1% | residual activity (PAK4 (human)): 95.7% | residual activity (CDK2 CCNA2 (human)): 88.7% | residual activity (RPS6KB2 (human)): 102% | residual activity (MARK2 (human)): 94.5% | residual activity (LRRK2 (human)): 82.7% | residual activity (CDC42BPB (human)): 98% | residual activity (CSNK2A1 (human)): 93.7% | residual activity (CDK9 CCNT1 (human)): 91.4% | residual activity (IKBKB (human)): 88.1% | residual activity (TAOK3 (human)): 98.8% | residual activity (PRKCI (human)): 94% | residual activity (GSG2 (human)): 84.8% | residual activity (ACVRL1 (human)): 102% | residual activity (MERTK (human)): 87.7% | residual activity (AKT1 (human)): 94% | residual activity (MATK (human)): 98% | residual activity (GSK3B (human)): 92% | residual activity (PNCK (human)): 103% | residual activity (TBK1 (human)): 84.7% | residual activity (MST4 (human)): 90.2% | residual activity (CLK4 (human)): 101% | residual activity (MUSK (human)): 78.2% | residual activity (WNK2 (human)): 102% | residual activity (CSNK1A1 (human)): 89.6% | residual activity (PAK6 (human)): 92.8% | residual activity (PLK1 (human)): 98.8% | residual activity (MET (human)): 96.4%

O=C1NC(=O)c2c1c1c3ccccc3[nH]c1c1[nH]c3cc(Br)ccc3c21
residual activity (TNK2 (human)): 97.4% | residual activity (FYN (human)): 95.2% | residual activity (EPHB2 (human)): 99.5% | residual activity (BRSK1 (human)): 21.5% | residual activity (AURKB (human)): 44.3% | residual activity (PAK1 (human)): 87.8% | residual activity (STK39 (human)): 90.7% | residual activity (EPHA7 (human)): 95.3% | residual activity (CSNK1G1 (human)): 96.2% | residual activity (MAP4K5 (human)): 42.3% | residual activity (EPHA2 (human)): 99.2% | residual activity (NTRK1 (human)): 82.2% | residual activity (LIMK1 (human)): 83.5% | residual activity (PRKX (human)): 85.1% | residual activity (NEK4 (human)): 89% | residual activity (PAK4 (human)): 96.4% | residual activity (CDK2 CCNA2 (human)): 52.5% | residual activity (RPS6KB2 (human)): 83.9% | residual activity (MARK2 (human)): 40.4% | residual activity (LRRK2 (human)): 49.8% | residual activity (CDC42BPB (human)): 84.1% | residual activity (CSNK2A1 (human)): 93.1% | residual activity (CDK9 CCNT1 (human)): 87.5% | residual activity (IKBKB (human)): 92.2% | residual activity (TAOK3 (human)): 82.3% | residual activity (PRKCI (human)): 96.2% | residual activity (GSG2 (human)): 72.9% | residual activity (ACVRL1 (human)): 109% | residual activity (MERTK (human)): 69.1% | residual activity (AKT1 (human)): 101% | residual activity (MATK (human)): 97.3% | residual activity (GSK3B (human)): 63.7% | residual activity (PNCK (human)): 99.4% | residual activity (TBK1 (human)): 53.5% | residual activity (MST4 (human)): 80.5% | residual activity (CLK4 (human)): 49.5% | residual activity (MUSK (human)): 88.4% | residual activity (WNK2 (human)): 92.1% | residual activity (CSNK1A1 (human)): 95.4% | residual activity (PAK6 (human)): 97.7% | residual activity (PLK1 (human)): 91.2% | residual activity (MET (human)): 76.6%
